Data published in patent publication US8129371B2, “Thienopyrimidine and pyrazolopyrimidine compounds and their use as mTOR kinase and PI3 kinase inhibitors” (Wyeth LLC, priority 2007, dated 2012).
Where two headings read alike, the source gives them in different places.

Key:
Human mTOR (FLAG-TOR) = biological target: T1, Human mTOR (FLAG-TOR) (Homo sapiens, UniProt P42345); experiment: Human mTOR kinase assay with purified enzyme, DELFIA format; assay type: biochemical
T1 construct: FLAG
Protocol: Enzymes are first diluted in kinase assay buffer (10 mM HEPES (pH 7.4), 50 mM NaCl, 50 mM β-glycerophosphate, 10 mM MnCl2, 0.5 mM DTT, 0.25 mM microcystin LR, and 100 mg/mL BSA). To each well, 12 μL of the diluted enzyme is mixed briefly with 0.5 μL test inhibitor or control vehicle dimethylsulfoxide (DMSO). […] The reaction plate is incubated for 2 hours (linear at 1-6 hours) at room temperature with gentle shaking and then terminated by adding 25 μL Stop buffer (20 mM HEPES (pH 7.4), 20 mM EDTA, 20 mM EGTA). […] The DELFIA Assay buffer and Enhancement solution can be purchased from PerkinElmer. 45 μL of the terminated kinase reaction mixture is transferred to a MaxiSorp plate (Nunc) containing 55 μL PBS. The His6-S6K is allowed to attach for 2 hours after which the wells are aspirated and washed once with PBS. 100 μL of DELFIA Assay buffer with 40 ng/mL Eu—P(T389)-S6K antibody is added. The antibody binding is continued for 1 hour with gentle agitation. The wells are then aspirated and washed 4 times with PBS containing 0.05% Tween-20 (PBST). 100 μL of DELFIA Enhancement solution is added to each well and the plates are read in a PerkinElmer Victor model plate reader. Data obtained is used to calculate enzymatic activity and enzyme inhibition by potential inhibitors.

PI3K [1] = biological target: T2, PI3K (Homo sapiens, UniProt P42336); experiment: Fluorescence polarization assay for PI3K; assay type: biochemical; conditions: read-out: PI3 Kinase α IC50
T2 construct: PI3 Kinase α IC50; other: PI3 Kinase α; other: PI3 Kinase α isoform, fluorescence polarization
Protocol: (§1) This assay is used to determine the IC50 of compounds of the present invention as it identifies inhibitors of PI3 kinase by measuring inhibition.
(§2) The assay is run by placing 5 μL of diluted enzyme per well, then 5 μL of diluted compound (or 9.5 μL enzyme then 0.5 μL compound in DMSO) is added and mixed. Then, 10 μL substrate is added to start the reaction. The samples are incubated 30-60 minutes, then the reaction is stopped by adding 20 μL stop/detector mix. PI3K is diluted with reaction buffer (e.g., 5 μL or 7.5 μL PI3K into 620 μL reaction buffer), and 5 μL of diluted enzyme is used per well. 5 μL reaction buffer or drug diluted in buffer (e.g., 4 μL/100 so final DMSO is 1% in reaction) is added to each. Pipetting up and down mixes the samples. Alternatively, the enzyme can be diluted to 1215 μL. In this case 9.8 μL is added per well and 0.2 μL compound is added in DMSO. To prepare 1 mL of substrate solution, 955 μL reaction buffer, 40 μL PIP2, and 2.5 μL ATP are mixed. 10 μL of substrate is added to each well to start the reaction.
(§3) Stop/detector mix is prepared by mixing 4 μL Red detector and 1.6 μL or 2.0 μL GST-GRP with 1 mL Stop buffer, which results in 10 nM probe and 70 nM GST-GRP). 20 μL of the stop/detector mix is added to each well to stop the reaction. The plates are read after 30-90 minutes keeping the red probe solutions dark. For the zero time point, stop/detector mix is added to the enzyme just before adding substrate. For an extra control, stop/detector mix is added to buffer (no enzyme) and substrate or to just buffer (no substrate). […] Plates are read on machines with filters for Tamra. The units are mP with no enzyme controls reading app 190-220 mP units. Fully active enzyme reduces fluorescence polarization down to 70-100 mP after 30 minutes.

PI3K [2] = biological target: T3, PI3K (Homo sapiens, UniProt P48736); experiment: Fluorescence polarization assay for PI3K; assay type: biochemical; conditions: read-out: PI3 Kinase γ IC50
T3 construct: PI3 Kinase γ IC50; other: PI3 Kinase γ; other: PI3 Kinase γ isoform, fluorescence polarization
Protocol: as §1, §2, §3

prostate line LNCap = experiment: In vitro cell culture growth assay (MTS), LNCap; assay type: cell-based; conditions: Homo sapiens, LNCaP, 72 h, LNCap cells, three days after drug treatment
Protocol: (§4) Human tumor cell lines used include prostate lines LNCap and PC3MM2, breast lines MDA468, MCF7, renal line HTB44 (A498), colon line HCT116, and ovarian line OVCAR3. Cells were plated in 96-well culture plates. One day following plating, the inhibitors were added to cells. Three days after drug treatment, viable cell densities were determined by metabolic conversion (by viable cells) of the dye MTS, a well-established cell proliferation assay. The assays were performed using an assay kit purchased from Promega Corp. (Madison, Wis.) following the protocol supplied with the kit. The MTS assay results were read in a 96-well plate reader by measuring absorbance at 490 nm. The effect of each treatment was calculated as percent of control growth relative to the vehicle-treated cells grown in the same culture plate.

breast line MDA468 = experiment: In vitro cell culture growth assay (MTS), MDA468; assay type: cell-based; conditions: Homo sapiens, 72 h, MDA468 cells, three days after drug treatment
Protocol: as §4

[3] = purified human mTOR enzyme, DELFIA format
[4] = PI3 Kinase α isoform, fluorescence polarization
[5] = PI3 Kinase γ isoform, fluorescence polarization

T2 sequence (P42336 whole entry, canonical isoform): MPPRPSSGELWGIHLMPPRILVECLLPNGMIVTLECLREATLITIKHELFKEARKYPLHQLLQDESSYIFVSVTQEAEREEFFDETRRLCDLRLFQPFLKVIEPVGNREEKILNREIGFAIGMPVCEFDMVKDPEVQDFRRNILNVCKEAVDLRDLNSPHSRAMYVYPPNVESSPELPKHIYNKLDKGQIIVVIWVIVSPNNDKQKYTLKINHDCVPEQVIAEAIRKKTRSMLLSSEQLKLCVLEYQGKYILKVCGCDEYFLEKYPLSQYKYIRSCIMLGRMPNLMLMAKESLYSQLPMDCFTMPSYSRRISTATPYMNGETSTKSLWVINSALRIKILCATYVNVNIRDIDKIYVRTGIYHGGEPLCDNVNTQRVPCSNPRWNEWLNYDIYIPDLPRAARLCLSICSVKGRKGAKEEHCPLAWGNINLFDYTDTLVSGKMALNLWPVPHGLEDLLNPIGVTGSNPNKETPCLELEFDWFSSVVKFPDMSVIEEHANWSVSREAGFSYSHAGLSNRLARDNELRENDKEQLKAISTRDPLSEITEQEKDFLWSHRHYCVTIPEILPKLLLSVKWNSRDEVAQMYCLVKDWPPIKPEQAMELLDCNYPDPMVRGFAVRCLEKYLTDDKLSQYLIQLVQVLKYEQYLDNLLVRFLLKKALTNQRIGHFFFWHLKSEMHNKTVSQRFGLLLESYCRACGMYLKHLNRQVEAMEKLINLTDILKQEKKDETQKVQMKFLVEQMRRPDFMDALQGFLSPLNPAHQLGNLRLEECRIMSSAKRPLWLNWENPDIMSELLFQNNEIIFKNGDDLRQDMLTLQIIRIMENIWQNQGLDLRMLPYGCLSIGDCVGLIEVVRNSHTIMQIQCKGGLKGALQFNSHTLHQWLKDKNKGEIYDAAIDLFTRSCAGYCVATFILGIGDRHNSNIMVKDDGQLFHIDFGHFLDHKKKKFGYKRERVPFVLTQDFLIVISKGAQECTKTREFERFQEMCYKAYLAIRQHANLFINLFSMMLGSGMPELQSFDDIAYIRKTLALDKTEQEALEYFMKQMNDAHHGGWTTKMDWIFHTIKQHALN
T3 sequence (P48736 whole entry, canonical isoform): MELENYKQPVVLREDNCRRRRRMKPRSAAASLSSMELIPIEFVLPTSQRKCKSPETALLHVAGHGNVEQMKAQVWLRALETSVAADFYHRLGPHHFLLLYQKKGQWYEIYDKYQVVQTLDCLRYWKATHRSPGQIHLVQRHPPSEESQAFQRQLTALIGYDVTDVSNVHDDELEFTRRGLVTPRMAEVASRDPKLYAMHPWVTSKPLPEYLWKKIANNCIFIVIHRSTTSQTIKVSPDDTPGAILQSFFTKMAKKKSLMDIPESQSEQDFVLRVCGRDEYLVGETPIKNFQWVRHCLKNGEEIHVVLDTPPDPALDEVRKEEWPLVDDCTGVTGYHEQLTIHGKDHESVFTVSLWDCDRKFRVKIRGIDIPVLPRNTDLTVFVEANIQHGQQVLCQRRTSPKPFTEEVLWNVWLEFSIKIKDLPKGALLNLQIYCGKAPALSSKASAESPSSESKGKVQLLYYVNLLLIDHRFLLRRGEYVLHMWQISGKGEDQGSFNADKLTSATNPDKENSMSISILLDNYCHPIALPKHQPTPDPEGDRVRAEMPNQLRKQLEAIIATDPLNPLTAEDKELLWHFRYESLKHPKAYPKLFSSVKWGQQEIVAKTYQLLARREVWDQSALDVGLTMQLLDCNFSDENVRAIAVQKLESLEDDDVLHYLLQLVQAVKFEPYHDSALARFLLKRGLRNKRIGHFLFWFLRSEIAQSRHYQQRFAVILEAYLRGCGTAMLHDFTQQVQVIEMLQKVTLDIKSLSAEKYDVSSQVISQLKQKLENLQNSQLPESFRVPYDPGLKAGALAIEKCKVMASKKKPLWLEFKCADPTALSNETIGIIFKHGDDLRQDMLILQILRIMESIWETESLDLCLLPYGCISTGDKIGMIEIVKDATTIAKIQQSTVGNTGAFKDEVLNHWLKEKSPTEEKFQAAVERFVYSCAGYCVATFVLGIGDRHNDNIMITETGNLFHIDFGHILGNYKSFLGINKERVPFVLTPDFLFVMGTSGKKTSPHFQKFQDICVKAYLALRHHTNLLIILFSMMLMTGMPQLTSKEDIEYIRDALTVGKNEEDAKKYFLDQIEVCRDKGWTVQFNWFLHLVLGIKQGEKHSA

| SMILES | IC50 (Human mTOR (FLAG-TOR); [3]) [nM] | IC50 (PI3K [1]; [4]) [nM] | IC50 (PI3K [2]; [5]) [nM] | IC50 (prostate line LNCap) [nM] | IC50 (Human mTOR (FLAG-TOR)) [nM] | IC50 (PI3K [1]; PI3 Kinase α) [nM] | IC50 (PI3K [2]; PI3 Kinase γ) [nM] | IC50 (breast line MDA468) [nM] |
| --- | --- | --- | --- | --- | --- | --- | --- | --- |
| O=C(Nc1ccc(-c2nc(N3CC4CCC(C3)O4)c3cnn([C@H]4CC[C@H](O)CC4)c3n2)cc1)NC1CC1 (relative stereo) [Example 403, 1-cyclopropyl-3-{4-[1-(trans-4-hydroxycyclohexyl)-4-(8-oxa-3-azabicyclo[3.2.1]oct-3-yl)-1H-pyrazolo[3,4-d]pyrimidin-6-yl]phenyl}urea] | 0.4 | 3630 | > 10000 | 5 | – | – | – | 180 |
| CN1CCN(c2ccc(NC(=O)Nc3ccc(-c4nc(N5CC6CCC(C5)O6)c5cnn([C@H]6CC[C@H](O)CC6)c5n4)cc3)cc2)CC1 (relative stereo) [Example 404, 1-{4-[1-(trans-4-hydroxycyclohexyl)-4-(8-oxa-3-azabicyclo[3.2.1]oct-3-yl)-1H-pyrazolo[3,4-d]pyrimidin-6-yl]phenyl}-3-[4-(4-methylpiperazin-1-yl)phenyl]urea] | 0.19 | 93 | 1140 | < 1 | – | – | – | 18 |
| CN1CCN(c2ccc(NC(=O)Nc3ccc(-c4nc(N5CC6CCC(C5)O6)c5cnn([C@H]6CC[C@@H](O)CC6)c5n4)cc3)cc2)CC1 (relative stereo) [Example 405, 1-{4-[1-(cis-4-hydroxycyclohexyl)-4-(8-oxa-3-azabicyclo[3.2.1]oct-3-yl)-1H-pyrazolo[3,4-d]pyrimidin-6-yl]phenyl}-3-[4-(4-methylpiperazin-1-yl)phenyl]urea] | 0.33 | 107 | 1360 | < 1 | – | – | – | 20 |
| O=C(Nc1ccc(-c2nc(N3CC4CCC(C3)O4)c3cnn(C4CCC5(CCCO5)CC4)c3n2)cc1)Nc1ccc(N2CCNCC2)cc1 (single isomer, unassigned) [Example 314, 1-(4-{4-(8-oxa-3-azabicyclo[3.2.1]oct-3-yl)-1-[(5r,8r)-1-oxaspiro[4.5]dec-8-yl]-1H-pyrazolo[3,4-d]pyrimidin-6-yl}phenyl)-3-(4-piperazin-1-ylphenyl)urea] | 0.455 | 511 | 2020 | 1 | – | – | – | 15 |
| O=C(Nc1ccc(-c2nc(N3CC4CCC(C3)O4)c3cnn(C4CCC5(CCCO5)CC4)c3n2)cc1)NC1CC1 (single isomer, unassigned) [Example 316, 1-cyclopropyl-3-(4-{4-(8-oxa-3-azabicyclo[3.2.1]oct-3-yl)-1-[(5r,8r)-1-oxaspiro[4.5]dec-8-yl]-1H-pyrazolo[3,4-d]pyrimidin-6-yl}phenyl)urea] | 0.495 | 4560 | > 10000 | 7 | – | – | – | 160 |
| CNC(=O)Nc1ccc(-c2nc(N3CC4CCC(C3)O4)c3cnn(CC(F)(F)F)c3n2)cc1 [Example 1, 1-methyl-3-{4-[4-(8-oxa-3-azabicyclo[3.2.1]oct-3-yl)-1-(2,2,2-trifluoroethyl)-1H-pyrazolo[3,4-d]pyrimidin-6-yl]phenyl}urea] | – | – | – | 38 | 0.63 | 1620 | > 10000 | 46 |

Now from value to compound, other results behind:

| IC50 (Human mTOR (FLAG-TOR); [3]) [nM] | IC50 (PI3K [1]; [4]) [nM] | IC50 (PI3K [2]; [5]) [nM] | IC50 (prostate line LNCap) [nM] | IC50 (Human mTOR (FLAG-TOR)) [nM] | IC50 (PI3K [1]; PI3 Kinase α) [nM] | IC50 (PI3K [2]; PI3 Kinase γ) [nM] | SMILES | IC50 (breast line MDA468) [nM] |
| --- | --- | --- | --- | --- | --- | --- | --- | --- |
| 0.203 | 353 | 2220 | 1 | – | – | – | O=C(Nc1ccncc1)Nc1ccc(-c2nc(N3CC4CCC(C3)O4)c3cnn(C4CCC5(CCCO5)CC4)c3n2)cc1 (single isomer, unassigned) [Example 312, 1-(4-{4-(8-oxa-3-azabicyclo[3.2.1]oct-3-yl)-1-[(5r,8r)-1-oxaspiro[4.5]dec-8-yl]-1H-pyrazolo[3,4-d]pyrimidin-6-yl}phenyl)-3-pyridin-4-ylurea] | 12 |
| 0.365 | 581 | 1450 | 1 | – | – | – | CN1CCN(c2ccc(NC(=O)Nc3ccc(-c4nc(N5CC6CCC(C5)O6)c5cnn(C6CCC7(CCCO7)CC6)c5n4)cc3)cc2)CC1 (single isomer, unassigned) [Example 313, 1-[4-(4-methylpiperazin-1-yl)phenyl]-3-(4-{4-(8-oxa-3-azabicyclo[3.2.1]oct-3-yl)-1-[(5r,8r)-1-oxaspiro[4.5]dec-8-yl]-1H-pyrazolo[3,4-d]pyrimidin-6-yl}phenyl)urea] | 15 |
| 0.8 | 5600 | 2060 | 10 | – | – | – | O=C(Nc1ccc(-c2nc(N3CC4CCC(C3)O4)c3cnn(C4CCC5(CCCO5)CC4)c3n2)cc1)OCCO (single isomer, unassigned) [Example 315, 2-hydroxyethyl (4-{4-(8-oxa-3-azabicyclo[3.2.1]oct-3-yl)-1-[(5r,8r)-1-oxaspiro[4.5]dec-8-yl]-1H-pyrazolo[3,4-d]pyrimidin-6-yl}phenyl)carbamate] | 220 |
| 0.285 | 909 | > 10000 | 2 | – | – | – | CNC(=O)Nc1ccc(-c2nc(N3CC4CCC(C3)O4)c3cnn(C4CCC5(CCCO5)CC4)c3n2)cc1 (single isomer, unassigned) [Example 389, 1-methyl-3-(4-{4-(8-oxa-3-azabicyclo[3.2.1]oct-3-yl)-1-[(5r,8r)-1-oxaspiro[4.5]dec-8-yl]-1H-pyrazolo[3,4-d]pyrimidin-6-yl}phenyl)urea] | 17 |
| – | – | – | 650 | 8 | > 10000 | > 10000 | COC(=O)Nc1ccc(-c2nc(N3CC4CCC(C3)O4)c3cnn(CC(F)(F)F)c3n2)cc1 [Example 2, methyl {4-[4-(8-oxa-3-azabicyclo[3.2.1]oct-3-yl)-1-(2,2,2-trifluoroethyl)-1H-pyrazolo[3,4-d]pyrimidin-6-yl]phenyl}carbamate] | 680 |
| – | – | – | < 27 | 0.38 | 3750 | > 10000 | CCNC(=O)Nc1ccc(-c2nc(N3CC4CCC(C3)O4)c3cnn(CC(F)(F)F)c3n2)cc1 [Example 3, 1-ethyl-3-{4-[4-(8-oxa-3-azabicyclo[3.2.1]oct-3-yl)-1-(2,2,2-trifluoroethyl)-1H-pyrazolo[3,4-d]pyrimidin-6-yl]phenyl}urea] | < 27 |
| – | – | – | < 27 | 0.18 | 345 | 2140 | O=C(Nc1ccc(-c2nc(N3CC4CCC(C3)O4)c3cnn(CC(F)(F)F)c3n2)cc1)Nc1cccnc1 [Example 4, 1-{4-[4-(8-oxa-3-azabicyclo[3.2.1]oct-3-yl)-1-(2,2,2-trifluoroethyl)-1H-pyrazolo[3,4-d]pyrimidin-6-yl]phenyl}-3-pyridin-3-ylurea] | < 27 |
